Data taken from patent US10945989B2, “Perinatal treatment with a flavonoid agonist of the TrkB receptor for BDNF rescues neurogenesis and behavior in the Ts65Dn mouse model of DS” (ALMA MATER STUDIORUM—Universita' di Bologna, priority 2017, dated 2021).

Tests used:
[1] = tested on: NPCs from the SVZ of Ts65Dn mice; experiment: Proliferation of NPC cultures (Cell Titer-Glo); assay type: cell-based, mouse; settings: 96 h
Method: Cells were isolated from the subventricular zone (SVZ) of the lateral ventricle and the subgranular zone (SGZ) of the hippocampal dentate gyrus (DG) of newborn (P1-P2) euploid and Ts65Dn mice. Briefly, brains were removed, the SVZ and SGZ regions were isolated and individually collected in ice-cold PIPES buffer pH 7.4. After centrifugation, tissue was digested for 10 min at 37° C. using Trypsin/EDTA 0.25% (Life Technologies) aided by gentle mechanical dissociation. Cell suspension from each individual mouse was plated onto 25 cm^2 cell-culture flask (Thermo Fisher Scientific) and cultured as floating neurospheres in medium containing basic fibroblast growth factor (bFGF, 10 ng/ml; Peprotech) and epidermal growth factor (EGF, 20 ng/ml; Peprotech) using an established protocol (Meneghini et al., 2014). […] Cell proliferation was quantified as relative luminescence units (RLU) values using Cell Titer-Glo viability assay reagent (Promega) on aVictor^3-V plate reader (PerkinElmer). […] In each experiment, five fields/well (corresponding to about 150-200 cells/well) were counted with a 60× objective by a Leica DMIRB inverted fluorescence microscope. Immunoreactive cells were counted and their percentage over total viable cells was calculated. […]

synaptophysin (SYN) = experiment: Western blot of hippocampal homogenates: synaptophysin; assay type: in vivo, mouse
Method: Euploid and Ts65Dn mice received a daily subcutaneous injection (at 9-10 am) of 7,8-DHF (5.0 mg/kg in vehicle: PBS with 1% DMSO) or vehicle from postnatal day 3 (P3) to postnatal day 15. This timing was chosen because it corresponds to that previously used to test the effects of fluoxetine and other pharmacotherapies in the neonate Ts65Dn mouse (Bianchi et al., 2010b; Giacomini et al., 2015; Stagni et al., 2016). Mice that received 7,8-DHF will be called “treated mice” (treated euploid mice: n=25; treated Ts65Dn mice: n=15). Mice that received the vehicle will be called “untreated mice” (untreated euploid mice: n=35; untreated Ts65Dn mice: n=21). […] The brains were excised and cut along the midline. The left hemisphere of a group of mice was fixed by immersion in PFA 4% and frozen, and the left hemisphere of another group of mice was used for Golgi staining. […]
In homogenates of the hippocampal formation of P15 mice, total proteins were obtained as previously described (Trazzi et al., 2011) and the levels of the following proteins were evaluated: BDNF, TrkB full length (TrkB-FL), phosphorylated TrkB (p-TrkB), the truncated form 1 of the TrkB receptor (TrkB-T1), phosphorylated ERK1 (p-ERK1), phosphorylated ERK2 (p-ERK2), ERK1, ERK2, synaptophysin (SYN), GAPDH and α-Tubulin using the antibodies reported in Table 1. […]

TrkB receptor = TrkB receptor (Homo sapiens, UniProt Q16620); settings: Liu et al., 2010 and 2013; cited from earlier work
[2] = tested on: granule cells of the dentate gyrus; experiment: Stereology of the DG: total number of granule cells; assay type: in vivo, mouse; settings: 5.0 mg/kg P3-P15
Method: Euploid and Ts65Dn mice received a daily subcutaneous injection (at 9-10 am) of 7,8-DHF (5.0 mg/kg in vehicle: PBS with 1% DMSO) or vehicle from postnatal day 3 (P3) to postnatal day 15. This timing was chosen because it corresponds to that previously used to test the effects of fluoxetine and other pharmacotherapies in the neonate Ts65Dn mouse (Bianchi et al., 2010b; Giacomini et al., 2015; Stagni et al., 2016). Mice that received 7,8-DHF will be called “treated mice” (treated euploid mice: n=25; treated Ts65Dn mice: n=15). Mice that received the vehicle will be called “untreated mice” (untreated euploid mice: n=35; untreated Ts65Dn mice: n=21). […]
Unbiased stereology was performed on Hoechst-stained sections from P15 mice. […] Granule cell nuclei were counted with a ×64 oil objective (1.4 NA). Granule cell nuclei intersecting the uppermost focal plane and intersecting the exclusion lines of the count frame were not counted. […]
where Q is the number of particles counted in the disectors, dis is the number of disectors and Vdis is the volume of the disector. For calculation of Vdis the disector height was corrected for section shrinkage in the z-plane (Dorph Petersen et al., 2001) according to the formula: h=counting thickness×(original thickness/measured thickness). The section thickness was measured during neuron counting at different random locations. […]

Sequence of TrkB receptor (Q16620 32-822): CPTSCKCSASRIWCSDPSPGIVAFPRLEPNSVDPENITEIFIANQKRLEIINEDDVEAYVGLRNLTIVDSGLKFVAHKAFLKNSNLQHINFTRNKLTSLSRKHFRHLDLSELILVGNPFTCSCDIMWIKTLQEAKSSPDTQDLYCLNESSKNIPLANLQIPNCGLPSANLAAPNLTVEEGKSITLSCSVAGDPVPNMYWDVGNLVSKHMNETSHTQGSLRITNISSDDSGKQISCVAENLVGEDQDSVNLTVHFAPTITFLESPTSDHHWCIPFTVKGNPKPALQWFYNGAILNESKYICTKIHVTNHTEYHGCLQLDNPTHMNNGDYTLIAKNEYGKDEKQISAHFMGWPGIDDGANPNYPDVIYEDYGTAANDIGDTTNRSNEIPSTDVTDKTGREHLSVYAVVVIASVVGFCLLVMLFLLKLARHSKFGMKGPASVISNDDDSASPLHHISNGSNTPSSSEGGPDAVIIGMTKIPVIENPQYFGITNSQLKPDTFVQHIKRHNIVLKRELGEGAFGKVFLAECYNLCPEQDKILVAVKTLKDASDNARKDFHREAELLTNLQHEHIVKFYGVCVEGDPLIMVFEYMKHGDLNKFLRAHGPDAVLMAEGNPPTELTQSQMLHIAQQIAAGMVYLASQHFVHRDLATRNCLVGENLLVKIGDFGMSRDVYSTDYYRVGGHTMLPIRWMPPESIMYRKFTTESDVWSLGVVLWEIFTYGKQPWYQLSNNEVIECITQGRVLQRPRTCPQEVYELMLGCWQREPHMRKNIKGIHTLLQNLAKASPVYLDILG

In the case of O=c1cc(-c2ccccc2)oc2c(O)c(O)ccc12 [7,8-DHF, 7,8-dihydroxyflavone], the “proliferation rate of trisomic NPCs” value ([1]; highest concentration 10.0 μM) is reported as “reduced proliferation”, the “proliferation rate of trisomic NPCs” value ([1]; tested concentrations 0.3-10.0 μM, vs vehicle) is reported as “none of the tested concentrations was able to increase the proliferation rate” and the “SYN levels in the hippocampus” value (synaptophysin (SYN); P15 Ts65Dn mice, became similar to untreated euploid mice) is reported as “increased SYN levels”. For the same molecule, the “SYN levels in the hippocampus” value (synaptophysin (SYN); P15 euploid mice, vs untreated counterparts) was “increase in SYN levels”, the “binding to the TrkB receptor” value (TrkB receptor) was “high affinity and specificity” and the “total number of granule cells” value ([2]; P15 Ts65Dn mice) was “became similar to that of untreated euploid mice”. The “total number of granule cells” value ([2]; P15 euploid mice) was “no effect on total number of granule cells”.
